{
  "source": "BindingDB's records for doi:10.1016/j.bmcl.2009.01.008",
  "about": "(Pfizer, 2009)",
  "note": "Values joined by “and” are separate entries in the source; they are usually repeats but may differ in a detail not shown here. Equal entries are not always repeated.",
  "data": [
    {"assay": "Antagonist activity at human recombinant CCR5 expressed in human HeLa-P4 cells assessed as inhibition of human HeLa-P4 cells binding to HIV1 gp160 expressing CHO cells by cell-cell fusion assay", "values": [
      {"smiles": "Cc1nnc(C(C)C)n1C1CCN([C@@H](C)C[C@H](NC(=O)C2CCC(F)(F)CC2)c2ccccc2)CC1", "note": "[4,4-difluoro-N-((1S,3S)-3-(4-(3-isopropyl-5-methyl-4H-1,2,4-triazol-4-yl)piperidin-1-yl)-1-phenylbutyl)cyclohexanecarboxamide]", "IC50": "49.9 nM"},
      {"smiles": "Cc1nnc(C(C)C)n1C1CCN(C(C)C[C@H](NC(=O)C2CCCC2)c2ccccc2)CC1", "note": "(mixture of isomers) [(+/-)-N-((1S)-3-(4-(3-isopropyl-5-methyl-4H-1,2,4-triazol-4-yl)piperidin-1-yl)-1-phenylbutyl)cyclopentanecarboxamide]", "IC50": "0.137 nM"},
      {"smiles": "CC(=O)N1CCC(C(=O)N[C@@H](CC(C)N2CCC(n3c(C)nnc3C(C)C)CC2)c2ccccc2)CC1", "note": "(mixture of isomers) [(+/-)-1-acetyl-N-((1S)-3-(4-(3-isopropyl-5-methyl-4H-1,2,4-triazol-4-yl)piperidin-1-yl)-1-phenylbutyl)piperidine-4-carboxamide]", "IC50": "28.7 nM"},
      {"smiles": "Cc1nnc(C(C)C)n1C1CCN([C@H](C)C[C@H](NC(=O)C2CC(F)(F)C2)c2ccccc2)CC1", "note": "[3,3-difluoro-N-((1S,3R)-3-(4-(3-isopropyl-5-methyl-4H-1,2,4-triazol-4-yl)piperidin-1-yl)-1-phenylbutyl)cyclobutanecarboxamide]", "IC50": "0.48 nM"},
      {"smiles": "Cc1nnc(C(C)C)n1C1CCN(C(C)C[C@H](NC(=O)CC(F)(F)F)c2ccccc2)CC1", "note": "(mixture of isomers) [(+/-)-3,3,3-trifluoro-N-((1S)-3-(4-(3-isopropyl-5-methyl-4H-1,2,4-triazol-4-yl)piperidin-1-yl)-1-phenylbutyl)propanamide]", "IC50": "85.3 nM"},
      {"smiles": "COC(=O)N[C@@H](CC(C)N1CCC(n2c(C)nnc2C(C)C)CC1)c1ccccc1", "note": "(mixture of isomers) [(+/-)-methyl(1S)-3-(4-(3-isopropyl-5-methyl-4H-1,2,4-triazol-4-yl)piperidin-1-yl)-1-phenylbutylcarbamate]", "IC50": "315 nM"},
      {"smiles": "Cc1nnc(C(C)C)n1C1CCN(C(C)C[C@H](NC(=O)C2CCOCC2)c2ccccc2)CC1", "note": "(mixture of isomers) [(+/-)-N-((1S)-3-(4-(3-isopropyl-5-methyl-4H-1,2,4-triazol-4-yl)piperidin-1-yl)-1-phenylbutyl)tetrahydro-2H-pyran-4-carboxamide]", "IC50": "164 nM"},
      {"smiles": "CC(=O)N[C@@H](CC(C)N1CCC(n2c(C)nnc2C(C)C)CC1)c1ccccc1", "note": "(mixture of isomers) [(+/-)-N-((1S)-3-(4-(3-isopropyl-5-methyl-4H-1,2,4-triazol-4-yl)piperidin-1-yl)-1-phenylbutyl)acetamide]", "IC50": "89.2 nM"},
      {"smiles": "Cc1nnc(C(C)C)n1C1CCN(C(C)C[C@H](NC(=O)C2CCS(=O)(=O)CC2)c2ccccc2)CC1", "note": "(mixture of isomers) [(+/-)-1,1-Dioxo-hexahydro-1lambda*6*-thiopyran-4-carboxylic acid{(S)-3-[4-(3-isopropyl-5-methyl-[1,2,4]triazol-4-yl)-piperidin-1-yl]-1-phenyl-butyl}-amide]", "IC50": "6.12 nM"},
      {"smiles": "Cc1nnc(C(C)C)n1C1CCN(C(C)C[C@H](NC(=O)CC2CC2)c2ccccc2)CC1", "note": "(mixture of isomers) [(+/-)-2-cyclopropyl-N-((1S)-3-(4-(3-isopropyl-5-methyl-4H-1,2,4-triazol-4-yl)piperidin-1-yl)-1-phenylbutyl)acetamide]", "IC50": "3.16 nM"},
      {"smiles": "Cc1nnc(C(C)C)n1C1CCN(C(C)C[C@H](NC(=O)C2CCCCC2)c2ccccc2)CC1", "note": "(mixture of isomers) [(+/-)-N-((1S)-3-(4-(3-isopropyl-5-methyl-4H-1,2,4-triazol-4-yl)piperidin-1-yl)-1-phenylbutyl)cyclohexanecarboxamide]", "IC50": "0.513 nM"},
      {"smiles": "Cc1nnc(C(C)C)n1C1CCN(C(C)C[C@H](NC(=O)N2CCN(C)CC2)c2ccccc2)CC1", "note": "(mixture of isomers) [(+/-)-N-((1S)-3-(4-(3-isopropyl-5-methyl-4H-1,2,4-triazol-4-yl)piperidin-1-yl)-1-phenylbutyl)-4-methylpiperazine-1-carboxamide]", "IC50": "187 nM"},
      {"smiles": "Cc1nnc(C(C)C)n1C1CCN(C(C)C[C@H](NC(=O)COCC(F)(F)F)c2ccccc2)CC1", "note": "(mixture of isomers) [(+/-)-N-((1S)-3-(4-(3-isopropyl-5-methyl-4H-1,2,4-triazol-4-yl)piperidin-1-yl)-1-phenylbutyl)-2-(2,2,2-trifluoroethoxy)acetamide]", "IC50": "52.8 nM"},
      {"smiles": "Cc1nnc(C(C)C)n1C1CCN(C(C)C[C@H](NC(=O)C2CC(F)(F)C2)c2ccccc2)CC1", "note": "(mixture of isomers)", "IC50": "1.3 nM and 0.38 nM"},
      {"smiles": "Cc1nnc(C(C)C)n1C1CCN(C(C)C[C@H](NC(=O)C2CC2)c2ccccc2)CC1", "note": "(mixture of isomers) [(+/-)-N-((1S)-3-(4-(3-isopropyl-5-methyl-4H-1,2,4-triazol-4-yl)piperidin-1-yl)-1-phenylbutyl)cyclopropanecarboxamide]", "IC50": "3.93 nM"},
      {"smiles": "Cc1nnc(C(C)C)n1C1CCN(C(C)C[C@H](NC(=O)C2CC[S+]([O-])CC2)c2ccccc2)CC1", "note": "(mixture of isomers) [(+/-)-1-Oxo-hexahydro-1lambda*4*-thiopyran-4-carboxylic acid{(S)-3-[4-(3-isopropyl-5-methyl-[1,2,4]triazol-4-yl)-piperidin-1-yl]-1-phenyl-butyl}-amide]", "IC50": "4.87 nM"},
      {"smiles": "Cc1nnc(C(C)C)n1C1CCN(C(C)C[C@H](NC(=O)C(C)C)c2ccccc2)CC1", "note": "(mixture of isomers) [(+/-)-N-((1S)-3-(4-(3-isopropyl-5-methyl-4H-1,2,4-triazol-4-yl)piperidin-1-yl)-1-phenylbutyl)isobutyramide]", "IC50": "3.11 nM"},
      {"smiles": "Cc1nc(C(C)C)n(C2CC3CCC(C2)N3CC[C@H](NC(=O)C2CCC(F)(F)CC2)c2ccccc2)n1", "note": "(stereo partly drawn) [4,4-difluoro-N-((1S)-3-(3-(5-isopropyl-3-methyl-1H-1,2,4-triazol-1-yl)-8-azabicyclo[3.2.1]octan-8-yl)-1-phenylpropyl)cyclohexanecarboxamide]", "IC50": "1.4 nM"},
      {"smiles": "Cc1nnc(C(C)C)n1C1CCN(C(C)C[C@H](NC(=O)N2CCOCC2)c2ccccc2)CC1", "note": "(mixture of isomers) [(+/-)-N-((1S)-3-(4-(3-isopropyl-5-methyl-4H-1,2,4-triazol-4-yl)piperidin-1-yl)-1-phenylbutyl)morpholine-4-carboxamide]", "IC50": "176 nM"}
    ]}
  ]
}
